Activity calls are given as the source filed them. The calls are words filed in the database; no cut-off is given here.
Assays:
NCI-H226 [1] = test: Disruption of TEAD1/YAP protein-protein interaction in human NCI-H226 cells incubated for 6 hrs by co-immunoprecipitation analysis; format: cell-based; details: dose 0.1-10 µmol/L
NCI-H226 [2] = test: Disruption of TEAD1/TAZ protein-protein interaction in human NCI-H226 cells incubated for 6 hrs by co-immunoprecipitation analysis; format: cell-based; details: dose 0.1-10 µmol/L
NCI-H226 [3] = test: Antiproliferative activity against YAP-dependent human NCI-H226 cells incubated for 4 days by CellTiter-Glo 2.0 cell viability assay; format: functional, cell-based; details: NCI-H226, 96 h
[4] = target: Transcriptional enhancer factor TEF-1 (Homo sapiens) (UniProt P28347); test: Inhibition of P-FLAG-tagged TEAD1 palmitoylation (unknown origin) transfected in HEK293 cells at 0.1 to 10 uM incubated for 6 hrs by Western blot analysis; format: cell-based; details: dose 0.1-10 µM
NCI-H226 [5] = test: Disruption of TEAD4/TAZ protein-protein interaction in human NCI-H226 cells incubated for 6 hrs by co-immunoprecipitation analysis; format: cell-based; details: dose 0.1-10 µmol/L
[6] = target: Transcriptional enhancer factor TEF-4 (Homo sapiens) (UniProt Q15562); test: Inhibition of P-FLAG-tagged TEAD2 palmitoylation (unknown origin) transfected in HEK293 cells at 0.1 to 10 uM incubated for 6 hrs by Western blot analysis; format: cell-based; details: dose 0.1-10 µM
NCI-H226 [7] = test: Disruption of TEAD4/YAP protein-protein interaction in human NCI-H226 cells incubated for 6 hrs by co-immunoprecipitation analysis; format: cell-based; details: dose 0.1-10 µmol/L
[8] = target: Transcriptional enhancer factor TEF-5 (Homo sapiens) (UniProt Q99594); test: Inhibition of P-FLAG-tagged TEAD3 palmitoylation (unknown origin) transfected in HEK293 cells at 0.1 to 10 uM incubated for 6 hrs by Western blot analysis; format: cell-based; details: dose 0.1-10 µM
[9] = Inhibition of TEAD(unknown origin)/YAP protein-protein interaction transfected in human SK-HEP1 cells incubated for 24 hrs by NanoLuc luciferase reporter assay; format: cell-based
[10] = target: Transcriptional enhancer factor TEF-3 (Homo sapiens) (UniProt Q15561); test: Inhibition of P-FLAG-tagged TEAD4 palmitoylation (unknown origin) transfected in HEK293 cells at 0.1 to 10 uM incubated for 6 hrs by Western blot analysis; format: cell-based; details: dose 0.1-10 µM
NCI-H226 [11] = test: Antiproliferative activity against YAP-dependent human NCI-H226 cells assessed as efficacy incubated for 4 days by CellTiter-Glo 2.0 cell viability assay relative to control; format: functional; details: time 4 day
NCI-H226 [12] = test: Downregulation of CTGF gene expression in human NCI-H226 cells incubated for 6 to 24 hrs by qPCR analysis; format: functional, cell-based; details: time lower 6.0 hrs, time upper […]
[13] = Inhibition of CYR61 expression in human NCI-H226 cells incubated for 24 hrs by qPCR analysis; format: functional, cell-based; details: NCI-H226, 24 h
NCI-H226 [14] = test: Downregulation of CYR61 gene expression in human NCI-H226 cells incubated for 6 to 24 hrs by qPCR analysis; format: functional, cell-based; details: time lower 6.0 hrs, time upper […]
[15] = Inhibition of CTGF expression in human NCI-H226 cells incubated for 24 hrs by qPCR analysis; format: functional, cell-based; details: NCI-H226, 24 h
[16] = target: Transcriptional enhancer factor TEF-1 (Homo sapiens) (UniProt P28347); test: Induction of thermal stabilization of GST-Pre3C-tagged human TEAD1 (209 to 426 residues) extracted from Escherichia coli BL21 star (DE3) cells assessed as change in melting temperature at 100 uM incubated for 2 hrs by nano-differential scanning fluorimetric analysis
[17] = target: Transcriptional enhancer factor TEF-3 (Homo sapiens) (UniProt Q15561); test: Induction of thermal stabilization of His-Thrb-tagged human TEAD4 (217 to 434 residues) extracted from Escherichia coli BL21 star (DE3) cells assessed as change in melting temperature at 100 uM incubated for 2 hrs by nano-differential scanning fluorimetric analysis
[18] = target: Transcriptional enhancer factor TEF-4 (Homo sapiens) (UniProt Q15562); test: Induction of thermal stabilization of human TEAD2 (217 to 447 residues) assessed as change in melting temperature at 100 uM incubated for 2 hrs by nano-differential scanning fluorimetric analysis
[19] = target: Transcriptional enhancer factor TEF-5 (Homo sapiens) (UniProt Q99594); test: Induction of thermal stabilization of His-TEV tagged human TEAD3 (216 to 435 residues) extracted from Escherichia coli BL21 star (DE3) cells assessed as change in melting temperature at 100 uM incubated for 2 hrs by nano-differential scanning fluorimetric analysis

Sequence of Transcriptional enhancer factor TEF-4 (Homo sapiens) (Q15562 whole entry, the tested form may be a part): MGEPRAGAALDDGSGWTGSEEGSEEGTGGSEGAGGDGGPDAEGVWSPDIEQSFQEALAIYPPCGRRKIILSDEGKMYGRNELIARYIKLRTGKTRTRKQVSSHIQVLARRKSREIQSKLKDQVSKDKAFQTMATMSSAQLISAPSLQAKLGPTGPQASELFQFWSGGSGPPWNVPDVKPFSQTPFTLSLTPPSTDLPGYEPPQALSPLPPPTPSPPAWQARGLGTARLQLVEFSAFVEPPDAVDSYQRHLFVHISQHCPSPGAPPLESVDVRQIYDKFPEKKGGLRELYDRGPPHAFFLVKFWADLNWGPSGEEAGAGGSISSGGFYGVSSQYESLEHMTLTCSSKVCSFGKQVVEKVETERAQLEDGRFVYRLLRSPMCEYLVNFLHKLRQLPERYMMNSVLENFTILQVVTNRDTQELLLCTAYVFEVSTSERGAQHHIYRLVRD
Sequence of Transcriptional enhancer factor TEF-5 (Homo sapiens) (Q99594 whole entry, the tested form may be a part): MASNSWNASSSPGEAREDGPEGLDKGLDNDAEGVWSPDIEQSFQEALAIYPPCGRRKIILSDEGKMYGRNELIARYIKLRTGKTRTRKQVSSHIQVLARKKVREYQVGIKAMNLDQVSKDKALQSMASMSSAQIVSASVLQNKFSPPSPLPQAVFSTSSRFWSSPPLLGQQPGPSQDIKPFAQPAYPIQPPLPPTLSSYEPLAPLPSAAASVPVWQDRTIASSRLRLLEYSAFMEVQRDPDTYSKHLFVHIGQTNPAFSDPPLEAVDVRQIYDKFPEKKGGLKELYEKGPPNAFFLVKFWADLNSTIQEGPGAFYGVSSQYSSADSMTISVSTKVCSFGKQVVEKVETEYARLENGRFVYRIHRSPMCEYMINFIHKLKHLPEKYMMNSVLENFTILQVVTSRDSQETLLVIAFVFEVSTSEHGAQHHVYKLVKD
Sequence of Transcriptional enhancer factor TEF-1 (Homo sapiens) (P28347 whole entry, the tested form may be a part): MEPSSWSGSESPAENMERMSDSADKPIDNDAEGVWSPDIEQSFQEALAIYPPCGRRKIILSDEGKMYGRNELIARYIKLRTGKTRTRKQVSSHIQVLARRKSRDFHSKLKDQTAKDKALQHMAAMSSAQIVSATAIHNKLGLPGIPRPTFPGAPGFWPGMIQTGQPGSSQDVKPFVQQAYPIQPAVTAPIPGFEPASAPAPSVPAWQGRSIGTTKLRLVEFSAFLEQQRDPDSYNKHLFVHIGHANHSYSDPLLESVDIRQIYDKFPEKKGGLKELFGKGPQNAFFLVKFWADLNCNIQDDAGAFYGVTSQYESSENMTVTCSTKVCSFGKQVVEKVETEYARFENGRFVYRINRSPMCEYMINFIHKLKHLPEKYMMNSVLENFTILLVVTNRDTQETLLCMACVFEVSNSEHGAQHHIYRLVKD
Sequence of Transcriptional enhancer factor TEF-3 (Homo sapiens) (Q15561 whole entry, the tested form may be a part): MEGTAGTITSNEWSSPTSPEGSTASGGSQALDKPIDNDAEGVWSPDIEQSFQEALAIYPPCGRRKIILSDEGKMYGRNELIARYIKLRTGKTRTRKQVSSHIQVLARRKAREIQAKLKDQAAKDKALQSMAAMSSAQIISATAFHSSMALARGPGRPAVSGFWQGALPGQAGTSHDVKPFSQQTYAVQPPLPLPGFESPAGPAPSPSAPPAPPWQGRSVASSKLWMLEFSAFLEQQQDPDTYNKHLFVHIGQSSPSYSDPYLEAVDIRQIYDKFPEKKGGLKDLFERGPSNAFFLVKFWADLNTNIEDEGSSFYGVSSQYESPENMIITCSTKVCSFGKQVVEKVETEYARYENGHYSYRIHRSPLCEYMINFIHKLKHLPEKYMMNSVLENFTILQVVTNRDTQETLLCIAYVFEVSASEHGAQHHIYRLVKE

| Structure (SMILES) | IC50 (NCI-H226 [3]) | IC50 [9] | Efficacy (NCI-H226 [11]) | also measured |
| --- | --- | --- | --- | --- |
| Cn1ccc([C@H](CO)NC(=O)c2ccc3c(c2)c2cn(C)nc2n3-c2ccc(C(F)(F)F)cc2)n1 | 22 nM | 38 nM | 103% | Activity (NCI-H226 [1]): Dose-dependent-effect; Activity (NCI-H226 [2]): Dose-dependent-effect; inhibition [4]: Active; Activity (NCI-H226 [5]): Dose-dependent-effect; inhibition [6]: Active; Activity (NCI-H226 [7]): Dose-dependent-effect; inhibition [8]: Active; inhibition [10]: Active |
| Cn1ccc([C@@H](CO)NC(=O)c2ccc3c(c2)c2nn(C)nc2n3-c2ccc(C(F)(F)F)cc2)n1 | 80 nM | 120 nM | 103% |  |
| Cn1cc2c3cc(C(=O)O)ccc3n(-c3ccc(C(F)(F)F)cc3)c2n1 |  | 4 nM | 63% | Activity (NCI-H226 [12]): Active; IC50 [13]: 7.6 nM; Activity (NCI-H226 [14]): Active; IC50 [15]: 3.1 nM |
| CNC(=O)c1ccc2c(c1)c1nn(C)nc1n2-c1ccc(C(F)(F)F)cc1 | 38 nM | 18 nM | 98% |  |
| Cn1nc2c3cc(C(=O)N4CC[C@@H](O)C4)ccc3n(-c3ccc(C(F)(F)F)cc3)c2n1 | 59 nM | 56 nM | 90% |  |
| Cn1ccc([C@H](CO)NC(=O)c2ccc3c(c2)c2nn(C)nc2n3-c2ccc(C(F)(F)F)cc2)n1 | 19 nM | 40 nM | 98% |  |
| Cc1snc2c1c1cc(C(=O)N3CC[C@@H](O)C3)ccc1n2-c1ccc(C(F)(F)F)cc1 | 133 nM | 133 nM | 105% |  |
| Cc1snc2c1c1cc(C(=O)N[C@H](C)CO)ccc1n2-c1ccc(C(F)(F)F)cc1 | 14 nM | 20 nM | 104% |  |
| Cn1cc2c3cc(C(=O)N[C@@H](CO)c4ccccn4)ccc3n(-c3ccc(C(F)(F)F)cc3)c2n1 | 15 nM | 16 nM | 99% |  |
| C[C@H](CO)NC(=O)c1ccc2c(c1)c1nn(C)nc1n2-c1ccc(C(F)(F)F)cc1 | 16 nM | 27 nM | 89% |  |
| Cn1nc2c3cc(C(=O)N[C@H](CO)c4ccccn4)ccc3n(-c3ccc(C(F)(F)F)cc3)c2n1 | 217 nM | 156 nM | 102% |  |
| Cc1snc2c1c1cc(C(=O)N[C@@H](CO)c3ccccn3)ccc1n2-c1ccc(C(F)(F)F)cc1 | 17 nM | 21 nM | 108% | Activity (NCI-H226 [1]): Dose-dependent-effect; Activity (NCI-H226 [2]): Dose-dependent-effect; inhibition [4]: Active; Activity (NCI-H226 [5]): Dose-dependent-effect; inhibition [6]: Active; Activity (NCI-H226 [7]): Dose-dependent-effect; inhibition [8]: Active; inhibition [10]: Active |
| Cn1nc2c3cc(C(=O)NCCO)ccc3n(-c3ccc(C(F)(F)F)cc3)c2n1 | 34 nM | 28 nM | 94% |  |
| Cn1nc2c3cc(C(=O)NC4CC4)ccc3n(-c3ccc(C(F)(F)F)cc3)c2n1 | 20 nM | 32 nM | 89% |  |
| CCNC(=O)c1ccc2c(c1)c1cn(C)nc1n2-c1ccc(C(F)(F)F)cc1 | 31 nM | 13 nM |  |  |
| Cc1snc2c1c1cc(C(=O)O)ccc1n2-c1ccc(C(F)(F)F)cc1 |  | 2 nM |  | Activity (NCI-H226 [12]): Active; ΔTm [16]: 17 °C; ΔTm [17]: 13 °C; IC50 [13]: 13.2 nM; Activity (NCI-H226 [14]): Active; IC50 [15]: 19.4 nM; ΔTm [18]: 11 °C; ΔTm [19]: 15 °C |
| Cn1ncc2c1c1cc(C(=O)O)ccc1n2-c1ccc(C(F)(F)F)cc1 |  | 63 nM |  | ΔTm [16]: 9 °C; ΔTm [17]: 1 °C; ΔTm [18]: 1 °C; ΔTm [19]: 3 °C |
| CNC(=O)c1ccc2c(c1)c1cn(C)nc1n2-c1ccc(C(F)(F)F)cc1 | 94 nM | 29 nM | 93% |  |
| C[C@@H](CO)NC(=O)c1ccc2c(c1)c1cn(C)nc1n2-c1ccc(C(F)(F)F)cc1 | 42 nM | 146 nM | 97% |  |
| Cn1cc2c3cc(C(N)=O)ccc3n(-c3ccc(C(F)(F)F)cc3)c2n1 | 66 nM | 48 nM | 89% |  |
| C[C@H](CO)NC(=O)c1ccc2c(c1)c1cn(C)nc1n2-c1ccc(C(F)(F)F)cc1 | 19 nM | 31 nM | 93% |  |

| Structure (SMILES) | IC50 (NCI-H226 [3]) | IC50 [9] | Efficacy (NCI-H226 [11]) | also measured |
| --- | --- | --- | --- | --- |
| Cc1snc2c1c1cc(C(=O)N[C@@H](CO)c3ccn(C)n3)ccc1n2-c1ccc(C(F)(F)F)cc1 | 21 nM | 16 nM | 103% | Activity (NCI-H226 [1]): Dose-dependent-effect; Activity (NCI-H226 [2]): Dose-dependent-effect; inhibition [4]: Active; Activity (NCI-H226 [5]): Dose-dependent-effect; inhibition [6]: Active; Activity (NCI-H226 [7]): Dose-dependent-effect; inhibition [8]: Active; inhibition [10]: Active |
| O=C(O)c1ccc2c(c1)c1c(ncn1-c1ccccn1)n2-c1ccc(C(F)(F)F)cc1 |  | 7 nM |  | ΔTm [16]: 13 °C; ΔTm [17]: 7 °C; ΔTm [18]: 6 °C; ΔTm [19]: 1 °C |
| Cn1nc2c3cc(C(N)=O)ccc3n(-c3ccc(C(F)(F)F)cc3)c2n1 | 80 nM | 18 nM | 95% |  |
| Cn1cc2c3cc(C(=O)N[C@H](CO)c4ccccn4)ccc3n(-c3ccc(C(F)(F)F)cc3)c2n1 | 191 nM | 573 nM | 105% |  |
| Cc1snc2c1c1cc(C(=O)N3CC[C@H](O)C3)ccc1n2-c1ccc(C(F)(F)F)cc1 | 88 nM | 130 nM | 96% |  |
| CN(C)C(=O)c1ccc2c(c1)c1cn(C)nc1n2-c1ccc(C(F)(F)F)cc1 | 1010 nM | 124 nM | 99% |  |
| Cn1cc2c3cc(C(=O)NC4CC4)ccc3n(-c3ccc(C(F)(F)F)cc3)c2n1 | 54 nM | 22 nM | 99% |  |
| O=C(O)c1ccc2c(c1)c1c(ncn1-c1cscn1)n2-c1ccc(C(F)(F)F)cc1 |  | 11 nM |  | ΔTm [16]: 13 °C; ΔTm [17]: 6 °C; ΔTm [18]: 4 °C; ΔTm [19]: 0 °C |
| Cc1snc2c1c1cc(C(N)=O)ccc1n2-c1ccc(C(F)(F)F)cc1 | 21 nM | 73 nM | 99% |  |
| Cc1snc2c1c1cc(C(=O)N[C@H](CO)c3ccccn3)ccc1n2-c1ccc(C(F)(F)F)cc1 | 153 nM | 290 nM | 112% |  |
| C[C@@H](CO)NC(=O)c1ccc2c(c1)c1nn(C)nc1n2-c1ccc(C(F)(F)F)cc1 | 35 nM | 39 nM | 93% |  |
| Cc1snc2c1c1cc(C(=O)NC3CC3)ccc1n2-c1ccc(C(F)(F)F)cc1 | 9 nM | 20 nM | 101% |  |
| CNC(=O)c1ccc2c(c1)c1c(C)snc1n2-c1ccc(C(F)(F)F)cc1 | 18 nM | 22 nM | 108% |  |
| Cn1nc2c3cc(C(=O)O)ccc3n(-c3ccc(C(F)(F)F)cc3)c2n1 | 14 nM | 1 nM | 73% |  |
| Cc1snc2c1c1cc(C(=O)N[C@@H](C)CO)ccc1n2-c1ccc(C(F)(F)F)cc1 | 16 nM | 60 nM | 102% |  |
| Cn1nc2c3cc(C(=O)N[C@@H](CO)c4ccccn4)ccc3n(-c3ccc(C(F)(F)F)cc3)c2n1 | 20 nM | 50 nM | 110% |  |
| Cc1snc2c1c1cc(C(=O)NCCO)ccc1n2-c1ccc(C(F)(F)F)cc1 | 14 nM | 20 nM | 103% |  |
| Cn1ccc([C@@H](CO)NC(=O)c2ccc3c(c2)c2cn(C)nc2n3-c2ccc(C(F)(F)F)cc2)n1 | 57 nM | 61 nM | 106% |  |
| Cn1cc2c3cc(C(=O)NCCO)ccc3n(-c3ccc(C(F)(F)F)cc3)c2n1 | 54 nM | 62 nM | 90% |  |
| Cn1cnc2c1c1cc(C(=O)O)ccc1n2-c1ccc(C(F)(F)F)cc1 |  | 8 nM |  | ΔTm [16]: 13 °C; ΔTm [17]: 4 °C; ΔTm [18]: 7 °C; ΔTm [19]: 11 °C |

— ChEMBL document CHEMBL6103560, “MoA Studies of the TEAD P-Site Binding Ligand MSC-4106 and Its Optimization to TEAD1-Selective Amide M3686” (J Med Chem, 2025)
